In patent US20260000655A1, “PHARMACEUTICAL COMPOSITION FOR USE IN PREVENTION OR TREATMENT OF LIFESTYLE-RELATED DISEASE” (priority 2022, published 2026):

Tests used:
[1] = test system: GLUT4 (glucose transporter type 4); test: Promotion of GLUT4 membrane translocation in L6-GLUT4myc; format: cell-based, rat; settings: HPH-15 10 μM (1/200th of metformin 2 mM; insulin 100 nM), 24 hours
Method: GLUT4 (glucose transporter type 4) is involved in the uptake of glucose into cells. Thus, the relationship between HPH-15 and the membrane translocation of GLUT4 was examined using the myotube cell model L6-GLUT4myc.
The myotube cell model L6-GLUT4myc cells used in Example 1 were seeded onto a 24-well plate (1×10^5 cells/well, […] of culture liquid) and cultured overnight. Then, a DMSO solution (1%) containing HPH-15 (final concentration: 10 μM), metformin (final concentration: 2 mM), or insulin (final concentration: 100 nM) was added to the medium, and the cells were further cultured for 24 hours. As a control, only DMSO solution (1%) was added, and the cells were cultured for 24 hours in the same manner. Next, each cell was fixed for 20 minutes with a 3% paraformaldehyde solution (Tokyo Chemical Industry Co., Ltd.). The reaction was stopped with an 1% glycine solution (Merck KGaA), and blocking was performed for 15 minutes using a PBS solution containing 5% goat serum (FUJIFILM Wako Pure Chemical Corp.). […] Detection was performed using OPD reagent (o-phenylenediamine dihydrochloride: FUJIFILM Wako Pure Chemical Corp.), and the amount of GLUT4 was evaluated by measuring absorbance (492 nm).

[2] = test system: liver cell model HepG2 cells; test: Neutral fat accumulation (Oil Red O) in presence of glucose; format: cell-based, human; settings: HPH-15 50 μM vs metformin 2 mM, glucose 100 mM, 24 hours
Method: Many patients with type 2 diabetes have fat accumulation in the visceral organs.
The liver cell model HepG2 cells used in Example 1 were seeded onto a 24-well plate (1×10^5 cells/well, […] of culture liquid) and cultured overnight. Then, a DMSO solution (1%) containing HPH-15 (final concentration: 50 μM) or metformin (final concentration: 2 mM) was added to the medium, and the cells were further cultured for 24 hours. As a control, only DMSO solution (1%) was added, and the cells were cultured for 24 hours in the same manner. Next, glucose (100 mM) was added to the medium, and the cells were further cultured for 24 hours. Then, the cells were fixed using 4% paraformaldehyde for 10 minutes. The fixed cells were added with an Oil Red O staining solution (Nacalai Tesque, Inc.) and shaken for 15 minutes. After washing with a 60% aqueous isopropanol solution, cell images were observed using a microscope. Further, the amount of neutral fat in the cells was determined by dissolving the stained cells in 100% isopropanol and measuring the absorbance (492 nm).

[3] = test system: high-fat diet-induced obesity model mice; test: Pyruvic acid loading test in mouse; format: in vivo; settings: HPH-15 10 mg/kg or 100 mg/kg orally, 28 days; pyruvic acid 2 g/kg intraperitoneally; compared to olive oil
Method: The effect of HPH-15 on the changes in blood glucose levels in the presence of pyruvic acid involving in gluconeogenesis was examined using mice.
High-fat diet-induced obesity model mice were prepared in the same manner as in Example 7. Then, HPH-15 (10 mg/kg or 100 mg/kg, […]) dissolved in olive oil or metformin (300 mg/kg, […]) was orally administered once a day for 28 days. Olive oil alone was administered as a control. After 28 days of administration of each, pyruvic acid was intraperitoneally administered (2 g/kg) to the high-fat diet-induced obesity model mice, and blood glucose levels (mg/dl) were measured at 0, 15, 30, 60, 90, and 120 minutes after administration using a blood glucose meter Glutest Aqua (Sanwa Kagaku Kenkyusho Co., Ltd.).

[4] = test system: high-fat diet-induced obesity model mice; test: Blood test value in mouse; format: in vivo; settings: HPH-15 10 or 100 mg/kg orally 28 days
Method: High-fat diet-induced obesity model mice were prepared in the same manner as in Example 7. Then, […] of olive oil (Kenei Pharmaceutical Co., Ltd.) as a solvent, HPH-15 (10 mg/kg or 100 mg/kg, […]) dissolved in olive oil, or metformin (300 mg/kg, […]) was orally administered once a day for 28 days. After administration of each for 28 days, the blood from the high-fat diet-induced obesity model mice was examined at the Kumamoto Mouse Clinic (Kumamoto National University Corp.).

[5] = test system: high-fat diet-induced obesity model mice; test: Sirius Red staining and collagen amount in mouse tissue; format: in vivo; settings: HPH-15 10 mg/kg or 100 mg/kg, metformin 300 mg/kg, orally 28 days, Western blotting
Method: High-fat diet-induced obesity model mice were prepared in the same manner as in Example 7. Then, HPH-15 (10 mg/kg or 100 mg/kg, […]) dissolved in olive oil or metformin (300 mg/kg, […]) was orally administered once a day for 28 days. Olive oil alone was administered as a control. After 28 days of administration of each, the liver and the epididymal fat of the high-fat diet-induced obesity model mice were stained with Sirius Red and observed using a microscope.
Further, high-fat diet-induced obesity model mice were prepared in the same manner as in Example 7. Then, HPH-15 (10 mg/kg or 100 mg/kg, […]) dissolved in olive oil or metformin (300 mg/kg, […]) was orally administered once a day for 28 days. Olive oil alone was administered as a control. After 28 days of administration of each, equal amounts (50 mg) of tissue pieces were collected from the liver and epididymal adipose tissues of the high-fat diet-induced obesity model mice, transferred to 1.5 mL Eppendorf tubes, and washed twice with PBS. After washing, the tissue pieces were transferred to BIOMASHER II, […] of RIPA buffer was added, and the tissue pieces were homogenized on ice. After homogenization, the tissue pieces were centrifuged (10,000 rpm, 4° C., 5 min) and the supernatant was obtained as a protein solution. The concentration of the proteins thus obtained was corrected based on the protein concentration measured by the BCA method using bicinchoninic acid (BCA), thereby preparing samples for Western blotting. Western blotting was quantified using ImageJ to calculate the amount of collagen.

[6] = compared with metformin 300 mg/kg

Compound: CC(C)(C)SCCNC(=S)c1cccc(C(=S)NCCSC(C)(C)C)n1 [HPH-15]
- amount of GLUT4 localized in the membrane [1]: promoted membrane translocation of GLUT4 to the same extent as metformin or insulin
- neutral fat accumulation [2]: had an inhibitory effect on neutral fat accumulation in the presence of high glucose in the same manner as metformin
- blood glucose levels after pyruvic acid loading [3]: significantly lowered
- toxicity (blood test) [4]: No toxicity was observed
- other blood test items ([4]; compared to olive oil): no differences were observed
- ALT value (blood test) [4, 6]: lower than that of metformin
- AST value (blood test) [4, 6]: significantly lower than those of metformin
- LD value (blood test) [4, 6]: significantly lower than those of metformin
- amount of collagen in the epididymal adipose tissue [5]: strongly reduced
- amount of collagen in the liver tissue [5]: strongly reduced
